From patent publication US20020169111A1, “Reversal of multidrug resistance in human colon carcinoma cells” (American Cyanamid Comany, priority 1998, published 2002)
Read-outs that look alike come from different tables or passages of the source.

Tested on: S1-M1-3.2 cells
Conditions: for Toxicity (>20%): compound alone, concentration that causes greater than 20% cell death of S1-M1-3.2 cells; for IC50: read-out: IC50 (μM), resensitizing S1-M1-3.2 cells to mitoxantrone, with 3.2 μM mitoxantrone, 50% cancer cell death; for concentration giving 40% cell death (compound alone) / activity in the reversal assay compared to FTC, fold lower / Per Cent Survival with 3.2 μM mitoxantrone / Per Cent Survival Alone / Difference Score: S1-M1-3.2 cells; for activity in the reversal assay compared to FTC, fold lower: Table 7 versus Table 8; for Per Cent Survival Alone: 3 days; for Difference Score: survival alone minus survival with 3.2 μM mitoxantrone
Description: One of the first reported molecules with reversing activity was verapamil, a calcium channel blocker. […] Cells were plated into 96-well dishes (100 μl/well) in growth medium supplemented with 5% FBS. […] Reversal agents were tested from 0.1-80 μM (triplicate points per dose). In parallel wells, cells were grown in the presence of the reversal agent alone.
The Difference Score is the difference in the percentage of cells surviving when the drug was given alone minus the percentage of cells surviving when the drug was given along with the antitumor agent.
Cell survival was estimated using the Sulforhodamine (SRB) assay.

In the case of O=C(NCCC[C@@H]1c2[nH]c3ccccc3c2C[C@H]2C(=O)N3CCC[C@H]3C(=O)N12)OCc1ccccc1 [Example 24a, Benzyl 3-[(5aS,12R,14aS)-5,14-dioxo-2,3,5a,6,11,12,14,14a-octahydro-1H,5H-pyrrolo[1″,2″:4′,5′]pyrazino[2′,1′:6,1]pyrido[3,4-b]indol-12-yl]propylcarbamate], the “Toxicity (>20%)” value is reported as 50 µM and the IC50 is reported as 10 µM.
CC(C)C[C@@H]1c2[nH]c3ccccc3c2C[C@H]2C(=O)N3CC[C@H]3C(=O)N12 [Example 22a, (4aS,11R,13aS)-11-isobutyl-1,4a,5,10,11,13a-hexahydro-4H-azeto[1″,2″:4′,5′]pyrazino[2′,1′:6,1]pyrido[3,4-b]indole-4,13(2H)-dione] was tested, and the “Toxicity (>20%)” value was 80.0 µM and the IC50 was 15 µM.
CC(C)C[C@@H]1c2[nH]c3ccccc3c2C[C@@H]2C(=O)N3CCC[C@H]3C(=O)N21 [Example 15a, (5aR,12R,14aS)-12-isobutyl-1,2,3,5a,6,11,12,14a-octahydro-5H,14H-pyrrolo[1″,2″:4′,5′]pyrazino[2′,1′:6,1]pyrido[3,4-b]indole-5,14-dione] was tested, and the “Toxicity (>20%)” value was >80.0 µM and the IC50 was 35 µM.
For O=C1[C@@H]2Cc3c([nH]c4ccccc34)CN2C(=O)[C@@H]2CCCN12 [Example 25, (5aS,14aS)-1,2,3,5a,6,11,12,14a-octahydro-5H,14H-pyrrolo[1″,2″:4′,5′]pyrazino[2′,1′:6,1]pyrido[3,4-b]indole-5,14-dione], the “Toxicity (>20%)” value was >80 µM and the IC50 was 15 µM.
With COc1ccc2c3c(n(CC=C(C)C)c2c1)[C@H](C=C(C)C)N1C(=O)[C@@H]2CCCN2C(=O)[C@]1(O)[C@H]3O [Fumitremorgin B] the “concentration giving 40% cell death (compound alone)” value was 20 µM, the “activity in the reversal assay compared to FTC, fold lower” value was 14 fold and the “Per Cent Survival with 3.2 μM mitoxantrone” value (drug 0.1 μM) was 91 ± 5 Per Cent. For the same compound, the “Per Cent Survival Alone” value (drug 0.1 μM alone) was 94 ± 1 Per Cent, the “Difference Score” value (drug 0.1 μM) was 3 and the “Per Cent Survival with 3.2 μM mitoxantrone” value (drug 0.5 μM) was 90 ± 3 Per Cent. For the same compound, the “Per Cent Survival Alone” value (drug 0.5 μM alone) was 95 ± 2 Per Cent, the “Difference Score” value (drug 0.5 μM) was 5 and the “Per Cent Survival with 3.2 μM mitoxantrone” value (drug 1 μM) was 87 ± 1 Per Cent. For the same compound, the “Per Cent Survival Alone” value (drug 1 μM alone) was 93 ± 0 Per Cent, the “Difference Score” value (drug 1 μM) was 6 and the “Per Cent Survival with 3.2 μM mitoxantrone” value (drug 5 μM) was 51 ± 4 Per Cent. The “Per Cent Survival Alone” value (drug 5 μM alone) was 90 ± 2 Per Cent, the “Difference Score” value (drug 5 μM) was 39 and the “Per Cent Survival with 3.2 μM mitoxantrone” value (drug 10 μM) was 35 ± 1 Per Cent. For the same compound, the “Per Cent Survival Alone” value (drug 10 μM alone) was 91 ± 4 Per Cent, the “Difference Score” value (drug 10 μM) was 56 and the “Per Cent Survival with 3.2 μM mitoxantrone” value (drug 20 μM) was 29 ± 1 Per Cent. The “Per Cent Survival Alone” value (drug 20 μM alone) was 59 ± 10 Per Cent, the “Difference Score” value (drug 20 μM) was 30 and the “Per Cent Survival with 3.2 μM mitoxantrone” value (drug 40 μM) was 20 ± 2 Per Cent. For the same compound, the “Per Cent Survival Alone” value (drug 40 μM alone) was 41 ± 7 Per Cent, the “Difference Score” value (drug 40 μM) was 21 and the “Per Cent Survival with 3.2 μM mitoxantrone” value (drug 80 μM) was 10 ± 1 Per Cent. For the same compound, the “Per Cent Survival Alone” value (drug 80 μM alone) was 16 ± 2 Per Cent, the “Difference Score” value (drug 80 μM) was 6 and the “Toxicity (>20%)” value was 15.0 µM. For the same compound, the IC50 was 5 µM.
CC(C)CC1c2[nH]c3ccccc3c2CC2C(=O)N3CCCCC3C(=O)N21 [Example 19a, (6aR,13R,15aS)-13-isobutyl-1,2,3,4,6a,7,12,13,15a-nonahydro-6H,15H-pyrido[1″,2″:4′,5′]pyrazino[2′,1′:6,1]pyrido[3,4-b]indole-6H,15H-dione] was tested, and the “Toxicity (>20%)” value was 50.0 µM and the IC50 was 11 µM.
For NCCC[C@H]1c2[nH]c3ccccc3c2C[C@H]2C(=O)N3CCC[C@H]3C(=O)N21 [Example 29b, (5aS,12S,14aS)-12-(3-aminopropyl)-1,2,3,5a,6,11,12,14a-octahydro-5H,14H-pyrrolo[1″,2″:4′,5′]pyrazino[2′,1′:6,1]pyrido[3,4-b]indole-5,14-dione], the “Toxicity (>20%)” value was >80 µM and the IC50 was > 80 µM.
For COc1ccc2c3c4n(c2c1)[C@@H](C=C(C)C)OOC(C)(C)C[C@@H]4N1C(=O)[C@@H]2CCCN2C(=O)[C@]1(O)[C@H]3OCC=C(C)C [Fumitremorgin A], the “concentration giving 40% cell death (compound alone)” value was 20 µM, the “activity in the reversal assay compared to FTC, fold lower” value was 20 fold and the “Per Cent Survival with 3.2 μM mitoxantrone” value (drug 0.1 μM) was 96 ± 2 Per Cent. The “Per Cent Survival Alone” value (drug 0.1 μM alone) was 95 ± 1 Per Cent, the “Difference Score” value (drug 0.1 μM) was −1 and the “Per Cent Survival with 3.2 μM mitoxantrone” value (drug 0.5 μM) was 95 ± 4 Per Cent. The “Per Cent Survival Alone” value (drug 0.5 μM alone) was 96 ± 2 Per Cent, the “Difference Score” value (drug 0.5 μM) was 1 and the “Per Cent Survival with 3.2 μM mitoxantrone” value (drug 1 μM) was 94 ± 5 Per Cent. The “Per Cent Survival Alone” value (drug 1 μM alone) was 96 ± 1 Per Cent, the “Difference Score” value (drug 1 μM) was 2 and the “Per Cent Survival with 3.2 μM mitoxantrone” value (drug 5 μM) was 64 ± 4 Per Cent. For the same compound, the “Per Cent Survival Alone” value (drug 5 μM alone) was 96 ± 1 Per Cent, the “Difference Score” value (drug 5 μM) was 32 and the “Per Cent Survival with 3.2 μM mitoxantrone” value (drug 10 μM) was 40 ± 6 Per Cent. For the same compound, the “Per Cent Survival Alone” value (drug 10 μM alone) was 89 ± 9 Per Cent, the “Difference Score” value (drug 10 μM) was 49 and the “Per Cent Survival with 3.2 μM mitoxantrone” value (drug 20 μM) was 35 ± 5 Per Cent. The “Per Cent Survival Alone” value (drug 20 μM alone) was 59 ± 4 Per Cent, the “Difference Score” value (drug 20 μM) was 24 and the “Per Cent Survival with 3.2 μM mitoxantrone” value (drug 40 μM) was 34 ± 4 Per Cent. For the same compound, the “Per Cent Survival Alone” value (drug 40 μM alone) was 50 ± 8 Per Cent, the “Difference Score” value (drug 40 μM) was 16 and the “Per Cent Survival with 3.2 μM mitoxantrone” value (drug 80 μM) was 34 ± 4 Per Cent. The “Per Cent Survival Alone” value (drug 80 μM alone) was 41 ± 8 Per Cent, the “Difference Score” value (drug 80 μM) was 7 and the “Toxicity (>20%)” value was 15.0 µM. The IC50 was 7 µM.
In the case of CC(C)C[C@H]1c2[nH]c3ccccc3c2C[C@H]2C(=O)N3CCC[C@@H]3C(=O)N21 [Example 16b, (5aS,12S,14aR)-12-isobutyl-1,2,3,5a,6,11,12,14a-octahydro-5H,14H-pyrrolo[1″,2″:4′,5′]pyrazino[2′,1′:6,1]pyrido[3,4-b]indole-5,14-dione], the “Toxicity (>20%)” value is reported as >80.0 µM and the IC50 is reported as 5.5 µM.
For O=C(NCCC[C@H]1c2[nH]c3ccccc3c2C[C@H]2C(=O)N3CCC[C@H]3C(=O)N21)[C@@H]1CCCN1 [Example 33, (2S)-N-{3-[(5aS,12S,14aS)-5,14-dioxo-2,3,5a,6,11,12,14,14a-octahydro-1H,5H-pyrrolo[1″,2″:4′,5′]pyrazino[2′,1′:6,1]pyrido[3,4-b]indol-12-yl]propyl}pyrrolidine-2-carboxamide], the “Toxicity (>20%)” value was >80 µM and the IC50 was > 80 µM.
In the case of C[C@H]1c2[nH]c3ccccc3c2C[C@H]2C(=O)N3CCC[C@H]3C(=O)N21 [Example 26, (5aS,12S,14aS)-12-methyl-1,2,3,5a,6,11,12,14a-octahydro-5H,14H-pyrrolo[1″,2″:4′,5′]pyrazino[2′,1′:6,1]pyrido[3,4-b]indole-5,14-dione], the “Toxicity (>20%)” value is reported as >80.0 µM and the IC50 is reported as 7 µM.
